In patent US20260256962A1, “PRODRUGS FOR COMPOUNDS SPECIFIC TO GRANZYME B AND USES THEREOF” (CYTOSITE BIOPHARMA INC., priority 2021, published 2026):

What was measured:
[1] = In vivo conversion of [^18F] granzyme B prodrugs to active form, radioactive metabolite screening of blood by radio-HPLC; parameters: species or system male CD-1 mice; details: for conversion to the active form: in vivo, mouse plasma 5 minutes after administration (FIGS. 4C, 5C); for 5 min (% active form in blood) / 15 min (% active form in blood): male CD-1 mice, tail vein injection, radio-HPLC; for 5 min (% active form in blood): blood 5 minutes post-injection; for 15 min (% active form in blood): blood 15 minutes post-injection
Excerpt: In vivo conversion of prodrugs was monitored by radioactive metabolite screening studies performed by injection of [^18F] granzyme B tracers in male CD-1 mice followed by analysis of extracted blood samples by radiometric HPLC. Results are reported as percent active form present in blood (Table 11).
Briefly, male CD-1 mice were anesthetized prior to dosing with approximately 250 μCi [^18F] granzyme B tracer via tail vein injection (n=3 mice/timepoint). For blood collection, mice were sacrificed following cardiac exsanguination with a syringe pre-rinsed with sodium heparin at 5 and 15 minutes post-injection and samples were prepared for analysis via radio-HPLC.
Blood samples were centrifuged at 1500 RCF for 5 minutes to allow for separation of plasma. Plasma samples were mixed with two volumes of methanol, vortexed for 30 seconds, and then centrifuged at 1500 RCF for 2 minutes. The supernatant was separated from the pellet and diluted 1:4 with PBS buffer pH 7.4 or water prior to analysis by HPLC.
Samples were then analyzed on an Agilent 1290 series UPLC UV coupled with a BGO coincidence detector. The HPLC method utilized 2) Phenomenex Monolithic C18 (100×4.6 mm); 100-200 μL injection volume; flow-rate: 1.2 mL/min; solvent for A: 20 mM ammonium acetate in water; solvent for B: 100% methanol; gradient: initial hold at 5% B hold for 1 min, 5% to 40% in 7 min, hold 40% B for 2 min, increase from 40% to 95% B in 1 min, hold 95% B for 2 min, and then return to 5% B to reequilibrate.

granzyme B = molecular target: T1, granzyme B (Homo sapiens, UniProt P10144); test: In vivo PET/CT imaging of ^18F-granzyme B tracers in Matrigel mouse model of active and pro-form granzyme B; parameters: species or system female nude athymic mice; details: nude athymic mice, i.v. radiotracer, static PET 75 minutes post-injection
T1 construct: In Vivo Imaging of ^18F-Granzyme B Tracers in a Matrigel Mouse Model of Active and Pro-Form Granzyme B; purchased Enzo Life Sciences; host or cells: purified from human lymphocytes
T1 sequence (P10144 21-247): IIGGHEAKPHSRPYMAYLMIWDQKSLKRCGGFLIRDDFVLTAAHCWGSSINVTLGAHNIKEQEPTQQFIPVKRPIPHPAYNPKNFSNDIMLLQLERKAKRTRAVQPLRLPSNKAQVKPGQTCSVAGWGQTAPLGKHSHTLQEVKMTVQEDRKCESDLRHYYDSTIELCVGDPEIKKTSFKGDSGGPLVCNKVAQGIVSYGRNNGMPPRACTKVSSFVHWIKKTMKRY
Procedure: Female nude athymic (5-6 weeks, 15-30 g) mice were purchased from Jackson Laboratories. Both granzyme B (Human lymphocytes, Enzo Life Sciences) and inactivated human pro-form granzyme B (R&D Systems) were also commercially purchased. […] Each granzyme B enzyme were then brought up to a final concentration of 0.05 μg/ul using phosphate buffered saline (GE, Hyclone). Matrigel (65 μl, Corning) was mixed with 15 μl of 0.75 μg of each granzyme B enzyme (granzyme B and pro-form granzyme B) within each Eppendorf tube. The mice were then anesthetized with 2.5-3% isoflurane mixed with oxygen. Approximately 60-80 μl of granzyme B/Matrigel or the pro-form granzyme B/Matrigel were then injected using a 28-gauge×0.5-inch insulin syringe (Terumo) to form implants on the right and left shoulder flanks of the mice. […] After the radiotracer injection, the catheter was removed and measured for any remaining residual radioactivity. […] PET signal in the granzyme B implants were quantified by manually drawing regions of interest (ROIs) over the Matrigel implants based on the fused PET/CT images and the corresponding activity values were determined with VivoQuant (Invicro, Massachusetts). […] Target to background ratios (TBR's) were then calculated by dividing the granzyme B % ID/g value by the pro-form granzyme B % ID/g value.

Compound | conversion to the active form [1] | 5 min (% active form in blood) [1] [%] | 15 min (% active form in blood) [1] [%] | differentiation in Matrigel (granzyme B vs pro-form granzyme B implants) (granzyme B)
CC[C@H](C)[C@H](NC(=O)CCNC(=O)CCNC(=O)[C@@H](CCC(=O)O)NC(=O)CN1CCC(CN2CCN3CCN(CC2)CC(=O)[O][Al]([F])[O]C(=O)C3)CC1)C(=O)N[C@H]1CCc2cccc3c2N(C1=O)[C@H](C(=O)N[C@H]1CC(=O)O[C@H]1OC)C3 [[^18F] 4-Al] | rapid conversion to the active form | 92 | 94 | good differentiation in Matrigel
CC[C@H](C)[C@H](NC(=O)CCNC(=O)CCNC(=O)[C@@H](CCC(=O)O)NC(=O)CN1CCC(CN2CCN3CCN(CC2)CC(=O)[O][Al]([F])[O]C(=O)C3)CC1)C(=O)N[C@H]1CCc2cccc3c2N(C1=O)[C@H](C(=O)N[C@H]1CC(=O)O[C@@H]1OC)C3 [[^18F] 3-Al] | slow conversion to the active form | 13 | 17 | poor differentiation in Matrigel
CC[C@H](C)[C@H](NC(=O)COCCNC(=O)[C@@H](CCC(=O)O)NC(=O)[C@@H](CCC(=O)O)NC(=O)CN1CCC(CN2CCN3CCN(CC2)CC(=O)[O][Al]([F])[O]C(=O)C3)CC1)C(=O)N[C@H]1CCc2cccc3c2N(C1=O)[C@H](C(=O)N[C@H]1CC(=O)O[C@@H]1OC)C3 [[^18F] 6-Al] |  | 11 | 16 | 
CCO[C@@H]1OC(=O)C[C@@H]1NC(=O)[C@@H]1Cc2cccc3c2N1C(=O)[C@@H](NC(=O)[C@@H](NC(=O)COCCNC(=O)[C@@H](CCC(=O)O)NC(=O)[C@@H](CCC(=O)O)NC(=O)CN1CCC(CN2CCN4CCN(CC2)CC(=O)[O][Al]([F])[O]C(=O)C4)CC1)[C@@H](C)CC)CC3 [[^18F] 8-Al] |  | 86 | 100 | 
CC[C@H](C)[C@H](NC(=O)COCCNC(=O)[C@@H](CCC(=O)O)NC(=O)[C@@H](CCC(=O)O)NC(=O)CN1CCC(CN2CCN3CCN(CC2)CC(=O)[O][Al]([F])[O]C(=O)C3)CC1)C(=O)N[C@H]1CCc2cccc3c2N(C1=O)[C@H](C(=O)N[C@H]1CC(=O)O[C@H]1OC)C3 [[^18F] 7-Al] |  | 69 | 78 | 
CC[C@H](C)[C@H](NC(=O)CCNC(=O)CCNC(=O)CN(CC(=O)O)C(=O)CN1CCC(CN2CCN3CCN(CC2)CC(=O)[O][Al]([F])[O]C(=O)C3)CC1)C(=O)N[C@H]1CCc2cccc3c2N(C1=O)[C@H](C(=O)N[C@H]1CC(=O)O[C@H]1OC)C3 [[^18F] 9-Al] |  | 90 | 100 | 
CCO[C@@H]1OC(=O)C[C@@H]1NC(=O)[C@@H]1Cc2cccc3c2N1C(=O)[C@@H](NC(=O)[C@@H](NC(=O)CCNC(=O)CCNC(=O)[C@@H](CCC(=O)O)NC(=O)CN1CCC(CN2CCN4CCN(CC2)CC(=O)[O][Al]([F])[O]C(=O)C4)CC1)[C@@H](C)CC)CC3 [[^18F] 5-Al] |  | 98 | 100 | 
